Reference: paper PMC8898184 (Drug Design, Development and Therapy, 2022)

Biological target: T1, Bovine β-lactoglobulin (BLG) (Bos taurus, UniProt P02754)
T1 sequence (P02754 17-178): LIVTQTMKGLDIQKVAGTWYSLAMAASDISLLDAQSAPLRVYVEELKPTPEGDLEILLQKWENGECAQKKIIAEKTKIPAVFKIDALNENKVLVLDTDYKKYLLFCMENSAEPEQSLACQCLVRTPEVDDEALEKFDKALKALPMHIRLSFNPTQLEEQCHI
Assay: tryptophan fluorescence quenching
Assay type: binding
Settings: PBS, pH 7.4, 37 °C; 5 μM BLG; double-log

In the case of `CC(=O)Oc1ccccc1C(=O)O` [aspirin], the “Kb (×10^3 M^-1)” value was 2.051 × 10^3 M^-1.
